Laboratory results: PMC4453034, “A functional comparison of the domestic cat bitter receptors Tas2r38 and Tas2r43 with their human orthologs” (BMC Neuroscience, 2015)
“Also recorded” adds a separate entry of the source. Counter-ions that a name gives are not always drawn. Like-named read-outs stand apart in the source and are kept apart here.

Assays:
[1] = target: T1, human TAS2R16 (Homo sapiens, UniProt Q9NYV7); assay: Ca2+ flux assay, negative control receptor; settings: PTC 100 μM, C4-HSL
T1 sequence (Q9NYV7 1-291): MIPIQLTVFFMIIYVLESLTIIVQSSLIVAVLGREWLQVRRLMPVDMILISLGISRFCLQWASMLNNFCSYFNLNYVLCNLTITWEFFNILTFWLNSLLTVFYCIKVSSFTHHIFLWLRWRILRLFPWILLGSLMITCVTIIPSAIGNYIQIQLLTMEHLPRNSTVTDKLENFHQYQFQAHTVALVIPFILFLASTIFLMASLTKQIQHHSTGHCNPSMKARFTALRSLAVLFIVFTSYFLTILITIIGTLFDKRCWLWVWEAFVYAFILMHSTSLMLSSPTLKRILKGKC

[2] = target: T2, human TAS2R38 (Homo sapiens, UniProt P59533); assay: Ca2+ flux assay, transiently transfected cells with Gα16-gust44; settings: for calcium flux response of human TAS2R38: PTC 100 μM, PROP 30 μM, C4-HSL 200 μM; for Hill Slope TAS2R38 human: calcium flux dose response
T2 sequence (P59533 1-333): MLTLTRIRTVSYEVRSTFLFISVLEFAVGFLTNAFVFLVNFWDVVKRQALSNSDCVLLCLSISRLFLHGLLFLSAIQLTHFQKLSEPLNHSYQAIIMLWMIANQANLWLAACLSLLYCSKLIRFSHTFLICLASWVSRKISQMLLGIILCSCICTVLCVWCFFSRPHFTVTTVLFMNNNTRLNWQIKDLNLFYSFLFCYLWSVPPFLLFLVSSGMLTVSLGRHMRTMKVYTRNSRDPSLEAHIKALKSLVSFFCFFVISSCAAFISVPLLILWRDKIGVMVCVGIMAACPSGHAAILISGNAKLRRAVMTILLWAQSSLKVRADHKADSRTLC

[3] = target: T3, cat Tas2r38 (Felis catus, UniProt Z9BUK5U3L3); assay: as above; settings: for calcium flux response of cat Tas2r38: PTC 100 μM, PROP 30 μM, C4-HSL 200 μM
T3 sequence (Z9BUK5U3L3 1-334): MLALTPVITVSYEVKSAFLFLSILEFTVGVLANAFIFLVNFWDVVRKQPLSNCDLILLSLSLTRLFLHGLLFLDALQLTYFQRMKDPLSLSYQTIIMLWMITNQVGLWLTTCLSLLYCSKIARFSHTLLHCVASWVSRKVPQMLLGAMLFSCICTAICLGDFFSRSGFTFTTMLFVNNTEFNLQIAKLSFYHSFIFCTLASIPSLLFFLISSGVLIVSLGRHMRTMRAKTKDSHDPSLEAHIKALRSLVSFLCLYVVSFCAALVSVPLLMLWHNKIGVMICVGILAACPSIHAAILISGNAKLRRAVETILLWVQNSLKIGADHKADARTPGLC

[4] = target: T4, human TAS2R43 (Homo sapiens, UniProt P59537); assay: as above; settings: for calcium flux response of human TAS2R43: PTC 100 μM, C4-HSL, aloin 300 μM, denatonium 1 mM, saccharin 6.7 mM; for Hill Slope TAS2R43 human: calcium flux dose response
T4 sequence (P59537 1-309): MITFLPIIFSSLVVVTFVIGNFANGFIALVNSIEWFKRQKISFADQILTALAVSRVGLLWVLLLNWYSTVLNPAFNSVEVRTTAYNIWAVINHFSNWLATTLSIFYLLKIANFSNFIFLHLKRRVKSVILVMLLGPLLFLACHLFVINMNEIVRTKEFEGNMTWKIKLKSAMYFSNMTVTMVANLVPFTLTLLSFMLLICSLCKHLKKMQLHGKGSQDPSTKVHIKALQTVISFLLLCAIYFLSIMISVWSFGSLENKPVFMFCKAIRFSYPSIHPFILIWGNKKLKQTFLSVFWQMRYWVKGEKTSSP

[5] = target: cat Tas2r43 (Felis catus, UniProt A0ABI8A390); assay: as above; settings: for calcium flux response of cat Tas2r43: PTC 100 μM, aloin 300 μM, denatonium 1 mM, saccharin 6.7 mM; for Hill Slope Tas2r43 cat: calcium flux dose response
[6] = target: T4, human TAS2R43; set-up: created similarly, expressing full-length receptor under the control of a CMV promoter; expressed in transfected cells; host or cells: mammalian cells (ATCC CRL-11268), co-transfected with Gα16-gust44; settings: published value for human TAS2R43; cited from earlier work
[7] = test system: cat Tas2r43; assay: Ca2+ flux assay, transiently transfected cells with Gα16-gust44; settings: PTC 100 μM, aloin 300 μM, denatonium 1 mM, saccharin 6.7 mM
[8] = target: T2, human TAS2R38; set-up: created similarly, expressing full-length receptor under the control of a CMV promoter; expressed in transfected cells; host or cells: mammalian cells (ATCC CRL-11268), co-transfected with Gα16-gust44; method as in PMID 15723792; settings: published value for human TAS2R38; cited from earlier work
[9] = target: T5, human TAS2R31 (Homo sapiens, UniProt P59538); assay: Ca2+ flux assay, probenecid specificity control; format: cell-based; settings: 1 mM probenecid, one hour pre-incubation
T5 construct: expressed in transfected cells; host or cells: transiently transfected cells expressing the receptor and Gα16-gust44
T5 sequence (P59538 1-309): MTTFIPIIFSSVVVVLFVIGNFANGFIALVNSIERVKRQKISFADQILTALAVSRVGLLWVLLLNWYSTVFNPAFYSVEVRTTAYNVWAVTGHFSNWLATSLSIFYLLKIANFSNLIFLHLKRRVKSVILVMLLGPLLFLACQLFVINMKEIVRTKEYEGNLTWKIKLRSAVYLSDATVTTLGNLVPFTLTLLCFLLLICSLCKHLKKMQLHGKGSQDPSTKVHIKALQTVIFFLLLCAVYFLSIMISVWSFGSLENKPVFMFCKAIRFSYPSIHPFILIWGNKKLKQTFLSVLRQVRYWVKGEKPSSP

[10] = 1 mM probenecid, one hour pre-incubation, 33 μM PTC
[11] = 1 mM probenecid, one hour pre-incubation, 300 μM aloin
[12] = 1 mM probenecid, one hour pre-incubation, 1 mM denatonium

cat Tas2r43 (Felis catus, UniProt A0ABI8A390), sequence (A0ABI8A390 entry or part of it): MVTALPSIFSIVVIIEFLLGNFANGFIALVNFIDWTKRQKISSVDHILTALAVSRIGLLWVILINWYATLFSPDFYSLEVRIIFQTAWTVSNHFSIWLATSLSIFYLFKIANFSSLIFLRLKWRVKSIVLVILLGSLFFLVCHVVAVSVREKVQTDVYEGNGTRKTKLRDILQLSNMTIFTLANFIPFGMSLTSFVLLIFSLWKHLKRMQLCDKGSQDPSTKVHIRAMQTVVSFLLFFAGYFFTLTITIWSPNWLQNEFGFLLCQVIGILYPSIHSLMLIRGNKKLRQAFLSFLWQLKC

Compound: CCCC(=O)N[C@H]1CCOC1=O [C4-HSL]
- calcium flux response of human TAS2R16 [1]: no response
- calcium flux response of human TAS2R38 [2]: responded weakly but specifically
- calcium flux response of cat Tas2r38 [3]: responded weakly but specifically
- calcium flux response of human TAS2R43 [4]: no response

Compound: CC[N+](CC)(CC(=O)Nc1c(C)cccc1C)Cc1ccccc1 [Denatonium, denatonium benzoate]
- EC50 [4]: 1210 µM
- calcium flux response of human TAS2R43 [4]: responded
- Hill Slope TAS2R43 human [4]: 1.3
- calcium flux response of cat Tas2r43 [5]: responded
- Hill Slope Tas2r43 cat [5]: 1.7
- fold lower EC50, cat Tas2r43 vs human TAS2R43 ([5]; from EC50 values): greater than 5 fold
- EC50 [6]: 300 µM

Compound: NC(=S)Nc1ccccc1 [PTC, phenylthiocarbamide]
- calcium flux response of human TAS2R16 [1]: did not respond
- EC50 [2]: 2.3 µM
- calcium flux response of human TAS2R38 [2]: strong calcium flux
- peak fluorescence over baseline ([2]; PTC at 100 μM): 27%
- Hill Slope TAS2R38 human [2]: 1.0
- calcium flux response of cat Tas2r38 [3]: strong calcium flux
- peak fluorescence over baseline ([3]; PTC at 100 μM): 40%
- Hill Slope Tas2r38 cat ([3]; calcium flux dose response): 2.6
- fold less concentration sensitive, cat Tas2r38 vs human TAS2R38 ([3]; from EC50 values): at least 10 fold
- EC50 ([3]; read-out: EC50 Tas2r38 cat, calcium flux dose response, 22 h post-transfection): 47 µM
- calcium flux response of human TAS2R43 [4]: did not respond
- calcium flux response of cat Tas2r43 [7]: did not respond
- EC50 [8]: 1.1 µM

Compound: O=C1c2c(O)cccc2C([C@@H]2O[C@H](CO)[C@@H](O)[C@H](O)[C@H]2O)c2cc(CO)cc(O)c21 (stereo partly shown) [Aloin, aloin]
- EC50 [4]: 35 µM
- calcium flux response of human TAS2R43 [4]: responded
- Hill Slope TAS2R43 human [4]: 0.8
- calcium flux response of cat Tas2r43 [5]: responded
- Hill Slope Tas2r43 cat [5]: 1.0
- fold more sensitive, human TAS2R43 vs cat Tas2r43 ([5]; from EC50 values): about 10 fold
- EC50 [6]: 1.2 µM

Compound: CCCN(CCC)S(=O)(=O)c1ccc(C(=O)O)cc1 [probenecid]
- probenecid effect on human TAS2R31 response to saccharin [9]: stimulation of flux
- probenecid effect on human TAS2R38 response to PTC [2, 10]: failed to induce a calcium flux; also recorded: inhibited completely
- probenecid effect on cat Tas2r38 response to PTC [3, 10]: failed to induce a calcium flux; also recorded: inhibited completely
- probenecid effect on human TAS2R43 response to aloin [4, 11]: inhibited
- probenecid effect on human TAS2R43 response to denatonium [4, 12]: inhibited
- probenecid effect on cat Tas2r43 response to aloin [5, 11]: inhibited
- probenecid effect on cat Tas2r43 response to denatonium [5, 12]: inhibited

Compound: O=C1NS(=O)(=O)c2ccccc21 [Saccharin, saccharin sodium salt hydrate]
- calcium flux response of cat Tas2r43 [7]: did not elicit a response

Compound: CCCc1cc(=O)[nH]c(=S)[nH]1 [PROP, 6-propyl-2-thiouracil]
- EC50 [2]: 2.2 µM
- calcium flux response of human TAS2R38 [2]: responded
- Hill Slope TAS2R38 human [2]: 1.59
- EC50 [8]: 2.1 µM
